Experimental findings from patent US8809347B2, “Bicyclic aryl and bicyclic heteroaryl substituted triazoles useful as AXL inhibitors” (Rigel Pharmaceuticals, Inc., priority 2006, dated 2014) are described below.

The experiment addresses T1, Axl (Homo sapiens, UniProt P30530).
T1 construct: Cells: Hela cells; endogenous in cells; host or cells: HeLa cells
T1 sequence (P30530 26-894): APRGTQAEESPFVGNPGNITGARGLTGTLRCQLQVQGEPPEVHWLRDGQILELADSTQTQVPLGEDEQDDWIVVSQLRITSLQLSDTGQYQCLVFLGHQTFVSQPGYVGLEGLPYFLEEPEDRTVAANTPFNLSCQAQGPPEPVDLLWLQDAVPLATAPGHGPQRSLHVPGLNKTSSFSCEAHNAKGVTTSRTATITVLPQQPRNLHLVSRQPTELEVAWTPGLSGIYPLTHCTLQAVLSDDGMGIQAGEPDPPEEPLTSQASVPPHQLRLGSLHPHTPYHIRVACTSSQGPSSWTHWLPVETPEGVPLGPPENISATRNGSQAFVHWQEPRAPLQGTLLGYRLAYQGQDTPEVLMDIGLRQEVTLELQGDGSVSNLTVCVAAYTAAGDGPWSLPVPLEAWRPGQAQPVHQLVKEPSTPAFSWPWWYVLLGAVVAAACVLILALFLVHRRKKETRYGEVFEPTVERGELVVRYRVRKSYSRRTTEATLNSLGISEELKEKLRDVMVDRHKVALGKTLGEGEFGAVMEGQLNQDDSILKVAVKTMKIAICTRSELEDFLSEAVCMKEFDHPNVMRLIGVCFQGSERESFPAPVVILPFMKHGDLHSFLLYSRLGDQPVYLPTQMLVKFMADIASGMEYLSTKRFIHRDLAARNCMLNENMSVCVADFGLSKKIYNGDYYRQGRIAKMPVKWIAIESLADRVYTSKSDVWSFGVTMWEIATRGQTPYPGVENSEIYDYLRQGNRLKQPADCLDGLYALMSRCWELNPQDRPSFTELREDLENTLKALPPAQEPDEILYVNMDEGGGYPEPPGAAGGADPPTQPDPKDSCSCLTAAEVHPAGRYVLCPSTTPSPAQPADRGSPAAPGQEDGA
The experiment in a line: Phospho-Akt in-cell Western assay (inhibition of Axl activity). It counts as cell-based. The note with it: Hela cells; 1 hr pre-treatment; stimulation by Axl-antibody cross-linking; phospho-Akt chemiluminescence normalized to relative cell number. As for the experimental part:
The compounds of the invention were tested in the following assay for their ability to inhibit Axl activity.
Phospho-Akt in-Cell Western Assay
• Cell culture plate: 96 well assay plate (Corning 3610), white, clear bottom, tissue-culture treated. • Cells: Hela cells. • Starvation medium: For Axl stimulation: 0.5% FCS (fetal calf serum) in DMEM, plus Axl/Fc (extracellular domain of AXL fused to immunoglobulin Fc region) (R&D, 154-AL) 500 ng/mL. • For EGF (epidermal growth factor) stimulation: 0.5% FCS in DMEM (Dulbecco's modified Eagles medium). • Poly-L-Lysine 0.01% solution (the working solution): […], dilute In PBS (phosphate buffered saline). • Axl antibody cross-linking: • 1st: Mouse anti-Axl (R&D, MAB154). • 2nd: Biotin-SP-conjugated AffiniPure goat anti-mouse IgG (H+ L) (Jackson ImmunoResearch #115-065-003). • Fixing buffer: 4% formaldehyde in PBS. • Wash buffer: 0.1% TritonX-100 in PBS. • Quenching buffer: 3% H2O2, 0.1% Azide in wash buffer, Azide and hydrogen peroxide (H2O2) are added fresh. • Blocking buffer: 5% BSA in TBST (tris buffered saline plus 0.1% Tween 20). • Primary antibody: Rabbit anti-human Phospho-Akt antibody (Cell Signaling 9271): 1×250 diluted in blocking buffer. • Secondary antibody: HRP (horse radish peroxidase)-conjugated Goat anti-Rabbit secondary, stock solution: Jackson ImmunoResearch (Goat anti-Rabbit HRP, #111-035-144) 1:1 diluted in glycerol, store at −20° C. The working solution: 1×2000 dilution of stock in blocking buffer. • Chemiluminescent working solution (Pierce, 37030): SuperSignal ELISA (enzyme linked immunosorbant assay) Pico Chemiluminescent substrate. • Crystal Violet solution: Stock: 2.5% Crystal violet in methanol, filtered and kept at ambient temperature. The working solution: dilute the stock 1:20 with PBS immediately before use. • 10% SDS: working solution: 5% SDS (sodium dodecylsulfate), diluted in PBS Methods: Day 1:
A 96 well TC (tissue culture treated) plate was coated with 10 μg/mL poly-L-Lysine at 37° C. for 30 min, washed twice with PBS, and air-dried for 5 minutes before cells were added. Hela cells were seeded at 10,000 cells/well and the cells were starved in 100 μL starvation medium containing Axl/Fc for 24 hrs.
The cells were pre-treated with test compounds by adding 100 μL of 2× test compound to the starvation medium on the cells. The cells were incubated at 37° C. for 1 hr before stimulation.
The cells were stimulated by Axl-antibody cross-linking as follows: A 5× 1st/2nd Axl antibody mixture was made (37.5 μg/mL 1st/100 μg/mL 2nd) in starvation medium and nutated at 4° C. with thorough mixing for 1-2 hours for clustering. The resulting mix was warmed to 37° C. 50 μL of 5× Axl 1st/2nd of antibody cluster was added to the cells and the cells were incubated at 37° C. for 5 min.
After 5 minutes stimulation, the plate was flicked to remove medium and the plate was tapped onto paper towels. Formaldehyde (4.0% in PBS, 100 μL) was added to fix the cells and the cells were incubated at ambient temperature for 20 min without shaking.
The cells were washed with a plate washer buffer to remove the formaldehyde solution. The plate was flicked to removed excess wash buffer and tapped onto paper towels. Quenching buffer (100 μL) was added to each well and the cells were incubated at ambient temperature for 20 minutes without shaking.
The cells were washed with a plate washer buffer to remove the quenching buffer. Blocking buffer (100 μL) was added and the cells were incubated at ambient temperature for at least an hour with gentle shaking.
The cells were washed with a plate washer buffer and diluted primary antibody (50 μL) was added to each well (blocking buffer was added to the negative control wells instead). The plates were incubated overnight at 4° C. with gentle shaking.
The wash buffer was removed, diluted secondary antibody (100 μL) was added, and the cells were incubated at ambient temperature for 1 hour with gentle shaking. […]

Take `CS(=O)(=O)N1CCN(c2ccc(Nc3nc(N)n(-c4ncc5c(n4)CCCCCC5)n3)cc2F)CC1` [Compound 19, N^3-(3-fluoro-4-(4-(methylsulfonyl)piperazin-1-yl)phenyl)-1-(5,6,7,8,9,10-hexahydrocycloocta[d]pyrimidin-2-yl)-1H-1,2,4-triazole-3,5-diamine]: the IC50 (usually the point on the concentration scale where inhibition reaches its midpoint) is 1 to 10 µM.
Turning to `Nc1nc(Nc2ccc(OCCN3CCCC3)cc2)nn1-c1ncnc2c1CCCCCC2` [Compound 20, 1-(5,6,7,8,9,10-hexahydrocycloocta[d]pyrimidin-4-yl)-N^3-(4-(2-(pyrrolidin-1-yl)ethoxy)phenyl)-1H-1,2,4-triazole-3,5-diamine], the IC50 was < 1 µM.
Consider `CN1CCN(c2ccc(Nc3nc(N)n(-c4ncnc5c4CCCCCC5)n3)cc2)CC1` [Compound 21, 1-(5,6,7,8,9,10-hexahydrocycloocta[d]pyrimidin-4-yl)-N^3-(4-(4-methylpiperazin-1-yl)phenyl)-1H-1,2,4-triazole-3,5-diamine], for which the IC50 was < 1 µM.
In the case of `Nc1nc(Nc2ccc(OCCN3CCCC3)cc2)nn1-c1ccc2c(n1)CCCCCC2` [Compound 22, 1-(5,6,7,8,9,10-hexahydrocycloocta[b]pyridin-2-yl)-N^3-(4-(2-(pyrrolidin-1-yl)ethoxy)phenyl)-1H-1,2,4-triazole-3,5-diamine], the 50% inhibitory concentration (IC50) is < 1 µM.
With `CN1CCN(c2ccc(Nc3nc(N)n(-c4ccc5c(n4)CCCCCC5)n3)cc2)CC1` [Compound 23, 1-(5,6,7,8,9,10-hexahydrocycloocta[b]pyridin-2-yl)-N^3-(4-(4-methylpiperazin-1-yl)phenyl)-1H-1,2,4-triazole-3,5-diamine], the concentration for half-maximal inhibition (IC50) is < 1 µM.
For the compound `Nc1nc(Nc2ccc(N3CCN(C4CC5CCC4C5)CC3)cc2)nn1-c1ncnc2c1CCCCCC2` (stereo not drawn) [Compound 24, N^3-(4-(4-(bicyclo[2.2.1]heptan-2-yl)piperazin-1-yl)phenyl)-1-(5,6,7,8,9,10-hexahydrocycloocta[d]pyrimidin-4-yl)-1H-1,2,4-triazole-3,5-diamine], the IC50 is < 1 µM.
For `Nc1nc(Nc2ccc(N3CCC(N4CCOCC4)CC3)c(F)c2)nn1-c1ncc2c(n1)CCCCCC2` [Compound 25, N^3-(3-fluoro-4-(4-morpholinopiperidin-1-yl)phenyl)-1-(5,6,7,8,9,10-hexahydrocycloocta[d]pyrimidin-2-yl)-1H-1,2,4-triazole-3,5-diamine], the half-maximal inhibitory concentration (IC50) lay in the range of 1 to 10 µM.
The figure for `Cc1csc2c(-n3nc(Nc4ccc5c(c4)CCCN(C4CCCC4)CC5)nc3N)nc(Cl)nc12` [Compound 26, 1-(2-chloro-7-methylthieno[3,2-d]pyrimidin-4-yl)-N^3-(3-cyclopentyl-1,2,3,4,5,6-hexahydrobenzo[d]azocin-8-yl)-1H-1,2,4-triazole-3,5-diamine] is < 1 µM; for `COc1cc2ncnc(-n3nc(Nc4ccc5c(c4)CCCN(C4CCCC4)CC5)nc3N)c2cc1OC` [Compound 27, N^3-(3-cyclopentyl-1,2,3,4,5,6-hexahydro-benzo[d]azocin-8-yl)-1-(6,7-dimethoxy-quinazolin-4-yl)-1H-[1,2,4]triazole-3,5-diamine] it is < 1 µM.
Turning to `Cc1csc2c(-n3nc(Nc4ccc5c(c4)OCCCCO5)nc3N)nc(Cl)nc12` [Compound 28, 1-(2-chloro-7-methylthieno[3,2-d]pyrimidin-4-yl)-N^3-(2,3,4,5-tetrahydrobenzo[b][1,4]dioxocin-8-yl)-1H-1,2,4-triazole-3,5-diamine], the IC50 was < 1 µM.
Turning to `Cc1csc2c(-n3nc(Nc4ccc5c(c4)CC(N4CCCC4)CCCC5)nc3N)nc(Cl)nc12` (stereo not drawn) [Compound 29, 1-(2-chloro-7-methylthieno[3,2-d]pyrimidin-4-yl)-N^3-(9-(pyrrolidin-1-yl)-5,6,7,8,9,10-hexahydrobenzo[8]annulen-2-yl)-1H-1,2,4-triazole-3,5-diamine], the half-maximal inhibitory concentration (IC50) is < 1 µM.
Consider `Nc1nc(Nc2ccc3c(c2)CCN(C2CCCC2)CCC3)nn1-c1ccc(C(F)(F)F)cn1` [Compound 30, N^3-(3-cyclopentyl-1,2,3,4,5,6-hexahydrobenzo[d]azocin-9-yl)-1-(5-(trifluoromethyl)pyridin-2-yl)-1H-1,2,4-triazole-3,5-diamine], for which the concentration for half-maximal inhibition (IC50) is < 1 µM.
Consider `Nc1nc(Nc2ccc3c(c2)CCCN(C2CCCC2)CC3)nn1-c1ncnc2ccc(F)cc12` [Compound 31, N^3-(3-cyclopentyl-1,2,3,4,5,6-hexahydrobenzo[d]azocin-8-yl)-1-(6-fluoroquinazolin-4-yl)-1H-1,2,4-triazole-3,5-diamine], for which the IC50 was < 1 µM.
Turning to `Nc1nc(Nc2ccc3c(c2)CCCN(C2CCCC2)CC3)nn1-c1nc2ccccc2s1` [Compound 32, 1-(benzo[d]thiazol-2-yl)-N^3-(3-cyclopentyl-1,2,3,4,5,6-hexahydrobenzo[d]azocin-8-yl)-1H-1,2,4-triazole-3,5-diamine], the half-inhibitory concentration (IC50) lay in the range of 1 to 10 µM.
With `Nc1nc(Nc2ccc3c(c2)CCN(C2CCCC2)CCC3)nn1-c1nc2ccccc2s1` [Compound 33, 1-(benzo[d]thiazol-2-yl)-N^3-(3-cyclopentyl-1,2,3,4,5,6-hexahydrobenzo[d]azocin-9-yl)-1H-1,2,4-triazole-3,5-diamine], the concentration for half-maximal inhibition (IC50) is < 1 µM.
For the compound `Cc1csc2c(-n3nc(Nc4cnc5c(c4)CCC(=O)CCC5)nc3N)nc(Cl)nc12` [Compound 34, 1-(2-chloro-7-methylthieno[3,2-d]pyrimidin-4-yl)-N^3-(7-oxo-5,6,8,9,10-pentahydrocycloocta[b]pyridin-3-yl)-1H-1,2,4-triazole-3,5-diamine], the concentration for half-maximal inhibition (IC50) was < 1 µM.
Turning to `Nc1nc(Nc2ccc(N3CCC(N4CCCC4)CC3)c(F)c2)nn1-c1ncnc2c1CCCCCC2` [Compound 35, N^3-(3-fluoro-4-(4-(pyrrolidin-1-yl)piperidin-1-yl)phenyl)-1-(5,6,7,8,9,10-hexahydrocycloocta[d]pyrimidin-4-yl)-1H-1,2,4-triazole-3,5-diamine], the IC50 was < 1 µM.
The figure for `Nc1nc(Nc2ccc(N3CC(N4CCCC4)C3)c(F)c2)nn1-c1ncnc2c1CCCCCC2` [Compound 36, N^3-(3-fluoro-4-(3-(pyrrolidin-1-yl)azetidin-1-yl)phenyl)-1-(5,6,7,8,9,10-hexahydrocycloocta[d]pyrimidin-4-yl)-1H-1,2,4-triazole-3,5-diamine] is < 1 µM.
